Data published in patent US9198433B2, “Substituted benzene fungicides” (E I DU PONT DE NEMOURS AND COMPANY, priority 2007, dated 2015).
Read-outs that look alike come from different tables or passages of the source. Marks after values point to notes of the source that are not given here.

Key:
Type in all cases: in vivo
Phytophthora infestans = conditions: 200 ppm; tomato late blight
Septoria nodorum = experiment: Test C: wheat glume blotch, preventive spray on wheat seedlings, disease rating
Outline: (§1)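 Preventive foliar spray to run-off on wheat seedlings, followed by disease rating. Test rate 200 ppm (equal to 500 g/ha), with some entries at 40 ppm or 50 ppm. Suspensions made in acetone/purified water 50/50 containing 250 ppm Trem 014.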

[1] = tested on: Erysiphe graminis f. sp. tritici; experiment: Test A: wheat powdery mildew, preventive spray on wheat seedlings, disease rating
Outline: as §1

Fusarium graminearum = conditions: wheat head scab
Alternaria solani = experiment: Test H: tomato early blight, preventive spray on tomato seedlings, disease rating
Outline: (§2)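 Disease ratings follow a preventive run-off spray of tomato seedlings. Compounds were first dissolved in acetone (3% of volume), then suspended in 50/50 acetone/water containing 250 ppm Trem 014. Test level 200 ppm (equivalent to 500 g/ha) except where marked * for 40 ppm or ** for 50 ppm.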

Pythium aphanidermatum = experiment: Test L: bluegrass pythium blight, preventive spray on bluegrass seedlings, disease rating
Source text: The test compounds were first dissolved in acetone in an amount equal to 3% of the final volume and then suspended at the desired concentration (in ppm) in acetone and purified water (50/50 mix) containing 250 ppm of the surfactant Trem® 014 (polyhydric alcohol esters). The resulting test suspensions were then used in Tests A-L. Spraying a 200 ppm test suspension to the point of run-off on the test plants was the equivalent of an application rate of 500 g/ha. The test suspension was sprayed to the point of run-off on bluegrass seedlings. […] A dash (-) indicates no test results. All results are for 200 ppm except where followed by an “*”, which indicates 40 ppm or “**”, which indicates 50 ppm.

Botrytis cinerea = experiment: Test F: tomato Botrytis, preventive spray on tomato seedlings, disease rating; conditions: 200 ppm
Outline: as §2

[2] = tested on: Puccinia recondita f. sp. tritici; experiment: Test B: wheat leaf rust, preventive spray on wheat seedlings, disease rating
Outline: as §1

Plasmopara viticola = experiment: Test K: grape downy mildew, spray on grape seedlings after inoculation, disease rating
Source text: The test compounds were first dissolved in acetone in an amount equal to 3% of the final volume and then suspended at the desired concentration (in ppm) in acetone and purified water (50/50 mix) containing 250 ppm of the surfactant Trem® 014 (polyhydric alcohol esters). The resulting test suspensions were then used in Tests A-L. Spraying a 200 ppm test suspension to the point of run-off on the test plants was the equivalent of an application rate of 500 g/ha. Grape seedlings were inoculated with a spore suspension of Plasmopara viticola (the causal agent of grape downy mildew) and incubated in a saturated atmosphere at 20° C. for 24 h. After a short drying period, the test suspension was sprayed to the point of run-off on the grape seedlings and then moved to a growth chamber at 20° C. for 6 days, after which the test units were placed back into a saturated atmosphere at 20° C. for 24 h. Upon removal, disease ratings were made. […] A dash (-) indicates no test results. All results are for 200 ppm except where followed by an “*”, which indicates 40 ppm or “**”, which indicates 50 ppm.

Septoria tritici = experiment: Test D: wheat leaf blotch, preventive spray on wheat seedlings, disease rating
Outline: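 Preventive test: one day after run-off spraying (200 ppm, equal to 500 g/ha, unless marked 40 or 50 ppm; acetone/water plus 250 ppm Trem 014), seedlings received S. tritici spore inoculum. Disease scored after 48 h at 24 °C in saturated air and 19 further days at 20 °C.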

Rhizoctonia oryzae = experiment: Test I: turf brown patch, preventive spray on creeping bent grass seedlings, disease rating; conditions: 200 ppm
Source text: The test compounds were first dissolved in acetone in an amount equal to 3% of the final volume and then suspended at the desired concentration (in ppm) in acetone and purified water (50/50 mix) containing 250 ppm of the surfactant Trem® 014 (polyhydric alcohol esters). The resulting test suspensions were then used in Tests A-L. Spraying a 200 ppm test suspension to the point of run-off on the test plants was the equivalent of an application rate of 500 g/ha. The test suspension was sprayed to the point of run-off on creeping bent grass seedlings. […] A dash (-) indicates no test results. All results are for 200 ppm except where followed by an “*”, which indicates 40 ppm or “**”, which indicates 50 ppm.

Compound | Percentage Disease Control, Test J (Phytophthora infestans) | Percentage Disease Control, Test C (Septoria nodorum; 40 ppm (*)) | Percentage Disease Control, Test A ([1]; 40 ppm (*)) | Percentage Disease Control, Test E (Fusarium graminearum; 200 ppm) | Percentage Disease Control, Test H (Alternaria solani; 200 ppm) | Percentage Disease Control, Test L (Pythium aphanidermatum; 200 ppm) | Percentage Disease Control, Test F (Botrytis cinerea) | Percentage Disease Control, Test B ([2]; 40 ppm (*)) | Percentage Disease Control, Test K (Plasmopara viticola; 200 ppm) | Percentage Disease Control, Test D (Septoria tritici; 40 ppm (*)) | Percentage Disease Control, Test I (Rhizoctonia oryzae) | Percentage Disease Control, Test C (Septoria nodorum; 200 ppm) | Percentage Disease Control, Test L (Pythium aphanidermatum; 40 ppm (*)) | Percentage Disease Control, Test K (Plasmopara viticola; 40 ppm (*)) | Percentage Disease Control, Test A ([1]; 200 ppm) | Percentage Disease Control, Test B ([2]; 200 ppm) | Percentage Disease Control, Test D (Septoria tritici; 200 ppm) | Percentage Disease Control, Test E (Fusarium graminearum; 40 ppm (*)) | Percentage Disease Control, Test H (Alternaria solani; 40 ppm (*))
COC(=O)NOc1cc(-c2cccc(OC(F)(F)F)c2)ccc1Cl [Cmpd 18] | 89% | 99* % | 100* % | 100% | 70% | 98% | 0% | 99* % | 81% | 98* % | 0% | – | – | – | – | – | – | – | –
COC(=O)NCc1cc(-c2ccn(CCC(C)C)n2)ccc1Cl [Cmpd 22] | 50% | – | 99* % | 99% | 0% | – | 0% | 95* % | 99% | 85* % | 0% | 99% | 94* % | – | – | – | – | – | –
COC(=O)NCc1cc(-c2ccn(CCC[Si](C)(C)C)n2)ccc1Cl [Cmpd 23] | 91% | 100* % | 99* % | 99% | 0% | – | 0% | 100* % | – | 98* % | 0% | – | 93* % | 99* % | – | – | – | – | –
COC(=O)NCc1cc(-c2ccn(Cc3cnc(Cl)s3)n2)ccc1Cl [Cmpd 25] | 0% | – | – | 77% | 76% | 0% | 37% | – | 63% | – | 0% | 78% | – | – | 91% | 96% | 96% | – | –
COC(=O)NCc1cc(-c2ccn(CC#N)n2)ccc1Cl [Cmpd 26] | 60% | – | – | 0% | 0% | 0% | 0% | – | 6% | – | 0% | 0% | – | – | 0% | 73% | 26% | – | –
CC[Si](C)(C)Cn1ccc(-c2ccc(Cl)c(CNC(=O)OC)c2)n1 [Cmpd 27] | 0% | 94* % | – | 93% | 0% | 0% | 0% | 99* % | 76% | 96* % | 0% | – | – | – | 96% | – | – | – | –
COC(=O)NCc1cc(-c2ccn(C)n2)ccc1Cl [Cmpd 28] | 0% | – | – | 0% | 28% | 0% | 0% | – | 25% | – | 0% | 0% | – | – | 54% | 88% | 86% | – | –
COC(=O)NCc1cc(-c2ccn(-c3ccccc3)n2)ccc1Cl [Cmpd 34] | 0% | 97* % | 97* % | – | – | 0% | 0% | 100* % | 78% | 100* % | 0% | – | – | – | – | – | – | 98* % | 90* %
COC(=O)NCc1cc(C(C)=NOCC[Si](C)(C)C)ccc1Cl [Compound 1, methyl N-[[2-chloro-5-[1-[[2-(trimethylsilyl)ethoxy]imino]ethyl]phenyl]-methyl]carbamate] | 0% | – | – | 100% | 0% | 0% | 0% | – | 66% | 100* % | 0% | 100% | – | – | 100% | 100% | – | – | –
COC(=O)NCc1cc(C(C)=NOC[Si](C)(C)c2ccc(Cl)cc2)ccc1Cl [Compound 5] | 0% | – | – | 0% | 77% | 0% | 0% | – | 23% | 100* % | 0% | 99% | – | – | 99% | 100% | – | – | –
